Test results: patent US6476037B1, “L-arginine and phosphodiesterase (PDE) inhibitor synergism” (The Regents of the University of California, priority 2000, dated 2002)
Where two headings read alike, the source gives them in different places.

Legend:
[1] = test system: Systemic and Coronary Vasculature of the Pig; assay: Hemodynamic effects in chronically instrumented, anesthetized swine; format: in vivo
Experimental: Chronically instrumented female swine (70 kg, n=10) (ascending aortic and left anterior descending (LAD) coronary artery transit time flow probes, carotid and internal jugular pressures) were administered five doses of 1-arginine in five-minute intervals. After a period of recovery, four doses of nitroglycerin (1, 2, 3, 4 μg/kg/min) were infused. Sildenafil (100 mg IV) was administered and the 1-arginine and nitroglycerin administrations repeated.
After approval by the Institutional Animal Care and Use Committee, 70 kg female domestic swine (70.5±2.6 kg) were sedated with ketamine (25 mg/kg IM). Mask induction with isoflurane was followed by intubation with an endotracheal tube (6.0 ID 45 cm long). An angiocathether (20 gauge) was placed in an ear vein for IV fluid administration. Prophylactic antibiotics (cefazolin 1 gram IV prior to incision followed by cephalexin 500 mg PO BID) were given. The animal was ventilated with 100% oxygen and isoflurane to maintain anesthesia. A left thoracotomy (T4-5) was performed under sterile conditions. Transonics® (Ithaca, N.Y.) transit time flow probes were placed on the ascending aorta (model 28A) and the proximal left anterior descending coronary artery (3 mm, model 3S). The flow probe cables were tunneled to the animal's back. The thoracotomy was closed and air evacuated with a chest tube. The animals were given ketorolac (30 mg IV) followed by buprenorphine (0.3 to 0.6 mg IM Q8 hours for 5 days) for postoperative pain. The animals were allowed to recover for a minimum of two days before experimentation.
Previously instrumented swine were sedated with ketamine (25 mg/kg IM) and mask-induced with isoflurane. An angiocatheter (20 gauge) was placed in an ear vein for IV fluid administration. Animals were intubated (6.0 ID 45 cm long tube) and ventilated with 100% oxygen and isoflurane. Prophylactic antibiotics were given (cefazolin 1 gm IV). The animal's neck was then opened using sterile technique. Angiocatheters (16 gauge) were placed in the left and right internal jugular veins for central venous pressure monitoring and for drug and fluid infusions. An angiocatheter (20 gauge) was placed in the common carotid artery for blood sampling and pressure measurement. Arterial and central venous pressures were measured with disposable pressure transducers (Abbott Critical Care Systems Transpac® IV, North Chicago, Ill.) and the Transonics® Transit Time Flow meter (Model 206 with (-R) pRessure Option, Ithaca, N.Y.). ECG was monitored (Electronics for Medicine Monitor Model OM). The neck was closed. A supra-pubic bladder catheter was placed using sterile technique for urinary drainage. Data was recorded at 100 Hz using WinDaq data acquisition software (Transonics Systems, Ithaca, N.Y.). The pressure transducers were calibrated using a mercury manometer. Flow probes were calibrated prior to use.
Fentanyl (2 mg), diazepam (20 mg), and pancuronium (10 mg) were administered as a bolus. Isoflurane was simultaneously discontinued.

[2] = L-arginine levels after oral or intravenous L-arginine supplementation; format: in vivo; conditions: preliminary trial, bolus 30 grams over 15 minutes; from 81±8
Experimental: With respect to the coronary disease applications, we note that L-arginine levels without supplementation are about 116±14 mmol/L and oral administration elevates the levels to about 224±26 mmol/L with improvement in vasomotor function. […] Intravenous infusions (10 mg/kg/min) raised L-arginine levels from about 102±5 to about 8172±122 mmol/L and caused vasodilation. In our preliminary trial a bolus of L-arginine (30 grams over 15 minutes) elevated levels (81±8 to 6900±600 μmol). In preferred embodiments, there were two fundamentally different ranges of L-Arginine levels achieved. Levels that were 1.5 to 2 times baseline and levels that were 50 to 100 times baseline.

[3] = L-arginine pharmacokinetic parameters from preliminary clinical and animal data; format: in vivo
Experimental: Computer simulation of the predicted L-arginine levels from the high dose (1 mcg/kg/min) yield levels of 420 mmol/L. (T1/2=10 minutes, Volume distribution=0.36 L/kg: obtained from our preliminary clinical and animal data). Computer simulations of the low dose (0.5 mcg/kg/min) yield levels of 260 mmol/L. These doses are in the range to improve endothelial function and prevent vasospasm but will not cause significant vasodilation.

[4] = Serum L-arginine and L-citrulline concentrations after IV L-arginine boluses; format: in vivo, swine
Experimental: 2. L-Arginine Administration: A bolus dose of 1-arginine (60 cc of 10% 1-arginine (6 grams)) was administered intravenously. Five minutes later a blood sample was taken. The dose was then repeated. This procedure was repeated a total of five times (total of 300 cc of 10% 1-arginine (30 grams) administered). Thirty minutes were allowed to elapse and then a final blood sample collected.
Blood samples were collected in serum separator tubes and immediately placed on ice. Tubes were centrifuged for 20 minutes and the serum removed and stored in cryovials at −80° C. L-arginine and 1-citrulline levels were quantified by the Protein Structure Lab at the University of California, Davis (Davis, Calif.) with an ion-exchange chromatographer (Beckman 6300 aminoacid analyzer, Fullerton, Calif.). Serum osmolality was measured using an osmometer (Advanced Instruments, Needleham Heights, Mass.) by the Veternary Medical Teaching Hospital Diagnostic Laboratories (Davis, Calif.).

[5] = cited from earlier work
[6] = first administration of sildenafil, 100 mg IV bolus, mean±SE
[7] = first dose of sildenafil, 100 mg IV bolus
[8] = l-arginine alone, five 6 gram IV boluses at 5 min intervals, mean±SE

O=[N+]([O-])OCC(CO[N+](=O)[O-])O[N+](=O)[O-] [Nitroglycerin, nitroglycerin]
CO, Max Effect ([1]; in vivo, iv): 9.1 ± 0.7 L/min | CVP, Max Effect ([1]; in vivo, iv): 9.9 ± 1.0 mmHg | CVR, Max Effect ([1]; in vivo, iv): 98.9 ± 9.8 dynes*sec*cm^−5*10^3 | HR, Max Effect ([1]; in vivo, iv): 128.3 ± 9.0 beats/min | LAD Flow, Max Effect ([1]; in vivo, iv): 65.4 ± 6.7 mL/min | MAP, Max Effect ([1]; in vivo, iv): 103.9 ± 6.6 mmHg | SVR, Max Effect ([1]; in vivo, iv): 882.8 ± 98.6 dynes*sec*cm^−5

CCCc1nn(C)c2c(=O)[nH]c(-c3cc(S(=O)(=O)N4CCN(C)CC4)ccc3OCC)nc12 [sildenafil]
LAD flow, peak [1, 6]: 87.6 ± 7.3 mL/min | Mean arterial pressure, min. [1, 6]: 78.7±7.0 mmHg | cardiac output, peak [1, 6]: 10.5 ± 0.8 L/min | central venous pressure, min. [1, 6]: 9.1±1.1 mmHg | coronary vascular resistance, min. [1, 6]: 54.7±5.3 dynes*sec*cm^−5*10^3 | heart rate, peak [1, 6]: 165.0±8.9 beats/min | systemic vascular resistance, min. [1, 6]: 612.2±61.1 dynes*sec*cm^−5 | duration of effects on MAP, CVP, CVR, and SVR [1, 7]: persisted through the fifteen-minute observation period | duration of increase in cardiac output (disappeared after) [1, 7]: three | duration of increase in heart rate [1, 7]: about five | increase in cardiac output [1, 7]: 1.2 L/min | effect of sildenafil on the l-arginine-induced change in LAD flow ([1]; sildenafil 100 mg IV before l-arginine boluses, P<0.05): potentiated the effects of 1-arginine on LAD flow | time of peak hemodynamic effect following injection ([1]; sildenafil i.v. bolus): approximately two

Cl.N=C(N)NCCC[C@H](N)C(=O)O [L-Arginine, 1-arginine hydrochloride]
L-arginine levels [2]: 6900 ± 600 µmol | T1/2 [3]: 10 min | Volume distribution [3]: 0.36 L/kg | Serum [L-Arginine] ([4]; 5 min after Dose #1 (6 grams IV), no sildenafil): 1987.0 ± 116.8 µM | Serum [L-Arginine] ([4]; 5 min after Dose #2 (6 grams IV each), no sildenafil): 3139.2 ± 129.6 µM | Serum [L-Arginine] ([4]; 5 min after Dose #3 (6 grams IV each), no sildenafil): 4143.3 ± 205.4 µM | Serum [L-Arginine] ([4]; 5 min after Dose #4 (6 grams IV each), no sildenafil): 5232.7 ± 364.6 µM | Serum [L-Arginine] ([4]; 5 min after Dose #5 (total 30 grams IV), no sildenafil): 5922.1 ± 307.4 µM | Serum [L-Citrulline] ([4]; 5 min after L-arginine Dose #1 (6 grams IV), no sildenafil): 54.7 ± 5.2 µM | Serum [L-Citrulline] ([4]; 5 min after L-arginine Dose #2, no sildenafil): 53.2 ± 4.2 µM | Serum [L-Citrulline] ([4]; 5 min after L-arginine Dose #3, no sildenafil): 54.9 ± 4.4 µM | Serum [L-Citrulline] ([4]; 5 min after L-arginine Dose #4, no sildenafil, hydrochloride): 61.5 ± 6.7 µM | Serum [L-Citrulline] ([4]; 5 min after L-arginine Dose #4, no sildenafil, listed as 1-arginine, hydrochloride): 61.5 ± 6.7 µM | Serum [L-Citrulline] ([4]; 5 min after L-arginine Dose #5, no sildenafil): 60.2 ± 5.9 µM | Serum [L-Citrulline] ([4]; 30 min Post last L-arginine dose, no sildenafil): 60.5 ± 7.1 µM | Serum [L-Arginine] ([4]; 30 min Post last dose, no sildenafil): 2592.7 ± 268.9 µM | L-arginine levels ([5]; intravenous infusions 10 mg/kg/min, from about 102±5): about 8172±122 mmol/L | L-arginine levels ([5]; oral administration, without supplementation about 116±14): about 224±26 mmol/L | CO, Max Effect [1, 8]: 8.9 ± 0.5 L/min | CVP, Max Effect [1, 8]: 12.0 ± 1.0 mmHg | CVR, Max Effect [1, 8]: 89.1 ± 4.7 dynes*sec*cm^−5*10^3 | HR, Max Effect [1, 8]: 106.5 ± 6.7 beats/min | MAP, Max Effect [1, 8]: 107.4 ± 6.4 mmHg | SVR, Max Effect [1, 8]: 825.0 ± 39.3 dynes*sec*cm^−5 | LAD Flow, Max Effect ([1]; l-arginine alone, five 6 gram IV boluses at 5 min intervals, mean±SE, hydrochloride): 66.7 ± 6.6 mL/min | LAD Flow, Max Effect ([1]; l-arginine alone, five 6 gram IV boluses at 5 min intervals, mean±SE, listed as L-arginine, hydrochloride): 66.7 ± 6.6 mL/min | change in coronary blood flow relative to the change expected for a similar change in osmolality ([1]; l-arginine fifth dose compared with mannitol): 2.6 times
